# Reference: US5288709A, “Erythromycin derivatives” (priority 1991, dated 1994)
# Several values for one entry are separate records, joined by “and”; a condition that tells them apart may be missing. Equal values may be shown once. Read-outs that look alike come from different tables or passages of the source.
# Key:
# in vivo = details: dog, iv, 10 mg/kg, t1/2 (biological half life), microbiological assay
# [1] = system: Haemophilus influenzae ATCC 43095; test: Treatment of induced otitis media in gerbils; assay type: in vivo, Haemophilus influenzae; female mongolian gerbils; details: read-out: ED50 (dose required to reduce CFUs by 90%)
# Method: The effectiveness of one of the compounds of the present invention in treating otitis media was examined as desribed below. A five hour log phase culture of Haemophilus influenzae ATCC 43095 was prepared in brain heart infusion broth (BHIB) supplemented with 4% Fildes enrichment and 0.001% nicotinamide adenine dinucleotide (NAD; commerically available from Sigma Chemical Co., St. Louis, Missouri).
# Immediately prior to treatment with the test compounds, middle ear aspirates from five gerbils were obtained as described below and cultured to determine the level of infection at the onset of therapy. The test compounds produced by Example 19, (9S,11S)-11-Amino-9-deoxo-11,12-deoxy-9,12-epoxyerythromycin A, was administered orally by gavage in a 0.5 mL volume beginning 17 hours post infection and continuing three times daily for two days to groups of five gerbils. As a standard, a second group of gerbils was similarly treated using erythromycin. Eighteen hours after the final treatment, the gerbils were euthanized, 0.02 mL of BHIB injected into the middle ear bulla through the tympanic membrane, and middle ear aspirates collected and cultured.
# The aspirates were diluted in BHIB and plated in duplicate onto chocolate agar. Colonies were counted after overnight incubation, and bacterial counts were expressed as colony forming units (CFUs) per middle ear. […]
# [2] = system: Staphylococcus aureus CMX 553; test: In-vitro antimicrobial activity primary screen (agar dilution MIC); assay type: cell-based; details: BHI agar, 20-24 h
# In short: (§1)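 Agar dilution in Brain Heart Infusion agar with twelve successive compound dilutions; plates inoculated with 1:100 diluted cultures by replicator and incubated 20-24 h at 35-37 °C. MIC is the lowest concentration giving no growth, slight haze or sparse isolated colonies versus compound-free control; erythromycin A plate run as reference.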
# [3] = system: Staphylococcus aureus CMX 686B; test: as above; assay type: cell-based; details: CMX686B, BHI agar, 20-24 h, read-out: MIC
# In short: as §1
# [4] = system: Staphylococcus aureus CMX 503A; test: as above; assay type: cell-based; details: BHI agar, 20-24 h
# In short: as §1
# [5] = system: Staphylococcus aureus (NCTC 10649); test: In-vivo acute mouse protection assay; set-up: species or system Staphylococcus aureus; female Swiss albino mice; details: dosed 1 and 5 h post-infection, observed 7 days
# Method: (§2) An acute mouse protection test was conducted on ten mice with each of three concentrations of selected compounds of the invention. Each concentration was a four-fold dilution of the previous concentration. The initial concentration will vary with the microorganism with which the mouse is challenged.
# (§3) The acute mouse protection test was conducted on female, Swiss albino mice, 18-20 grams in weight. […] To check the potency of the inoculum, a titration of the indicated test organism was carried out in control animals. The titration determines the LD50 for a particular microorganism. The treatment groups of animals were dosed orally, by gavage, or subcutaneously with the test compounds at 1 and 5 hours post-infection and observed for 7 days. The ED50 were calculated using the mortality data collected.
# [6] = system: Staphylococcus aureus NCTC 10649; test: In-vitro antimicrobial activity primary screen (agar dilution MIC); assay type: cell-based; details: BHI agar, 20-24 h
# In short: (§4)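 Steps: prepare 12 BHI agar plates with serial aqueous dilutions; inoculate with 1:100 dilutions (1:10 for Streptococcus and other slow growers); incubate 35-37° C, 20-24 h; score MIC as lowest concentration with no growth, slight haze or isolated colonies.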
# [7] = system: Staphylococcus aureus 642A; test: as above; assay type: cell-based; details: BHI agar, 20-24 h
# In short: as §4
# [8] = system: Streptococcus pyogenes C-203; test: In-vivo acute mouse protection assay; set-up: species or system Streptococcus pyogenes; female Swiss albino mice; details: dosed 1 and 5 h post-infection, observed 7 days
# Method: as §2, §3
# [9] = system: Streptococcus pneumoniae (ATCC 6303); test: In-vivo acute mouse protection assay; set-up: species or system Streptococcus pneumoniae; female Swiss albino mice; details: dosed 1 and 5 h post-infection, observed 7 days
# Method: as §2, §3
# [10] = Staphylococcus aureus, CMX553, 24 h, read-out: MIC
# [11] = Staphylococcus aureus, CMX503A, 24 h, read-out: MIC
# [12] = Staphylococcus aureus, NCTC10649, 168 h, oral, read-out: ED50
# [13] = Staphylococcus aureus, NCTC10649, sc, 168 h, subcutaneous, read-out: ED50
# [14] = ATCC6303, 168 h, oral, read-out: ED50
# [15] = ATCC6303, sc, 168 h, subcutaneous, read-out: ED50
Compound,"MIC [2, 10] [µg/mL]",MIC [3] [µg/mL],"MIC [4, 11] [µg/mL]","ED50 [5, 12] [mg/kg]","ED50 [5, 13] [mg/kg]","ED50 ([8]; C203, 168 h, oral) [mg/kg]","ED50 ([8]; C203, sc, 168 h, subcutaneous) [mg/kg]","ED50 [9, 14] [mg/kg]","ED50 [9, 15] [mg/kg]",also measured
"CC[C@H]1OC(=O)[C@H](C)[C@@H](O[C@H]2C[C@@](C)(OC)[C@@H](O)[C@H](C)O2)[C@H](C)[C@@H](O[C@@H]2O[C@H](C)C[C@H](N(C)C)[C@H]2O)[C@](C)(O)C[C@@H](C)C(=O)[C@H](C)[C@@H](O)[C@]1(C)O [Std, Erythromycin A, reference compound]",0.2,0.2,0.2,–,–,–,–,–,–,"half-life (in vivo): 1.4 h; ED50 ([1]; ATCC43095, po): > 300 mg/kg; MIC [2]: 0.1 microgram/mL; MIC [4]: 0.1 microgram/mL; ED50 ([5]; Staphylococcus aureus, NCTC10649, sc, 168 h, subcutaneous): 12.9 mg/kg; ED50 ([5]; subcutaneous, 10080 min): 8.3 mg/kg and 11.6 mg/kg; MIC [6]: 0.1 microgram/mL; MIC ([6]; Staphylococcus aureus, NCTC10649, 24 h): 0.2 µg/mL; MIC [7]: 0.1 microgram/mL; MIC ([7]; Staphylococcus aureus, 642A, 24 h): 0.2 µg/mL"
"CC[C@H]1OC(=O)[C@H](C)[C@@H](O[C@H]2C[C@@](C)(OC)[C@@H](O)[C@H](C)O2)[C@H](C)[C@@H](O[C@@H]2O[C@H](C)C[C@H](N(C)C)[C@H]2O)[C@](C)(O)C[C@@H](C)[C@@H]2O[C@@]1(C)[C@@H](N)[C@H]2C [Example 19, (9S,11S)-11-Amino-9-deoxo-11,12-deoxy-9,12-epoxyerythromycin A]",0.2,0.2,0.2,75.4,20.7,28.9,2.5,< 9.4,1.1,"ED50 ([1]; ATCC43095, gerbil, oral gavage three times daily for two days from 17 h post infection): 46.5 mg/kg"
"CC[C@H]1OC(=O)[C@H](C)[C@@H](O[C@H]2C[C@@](C)(OC)[C@H](N)[C@H](C)O2)[C@H](C)[C@@H](O[C@@H]2O[C@H](C)C[C@H](N(C)C)[C@H]2O)[C@](C)(O)C[C@@H](C)[C@@H]2O[C@@]1(C)[C@@H](O)[C@H]2C [Example 13, (4""R,9S,11S) 4""-Amino-9-deoxo-4"",12-dideoxy-9,12-epoxyerythromycin A]",0.2,0.2,0.2,126,39.6,51.5,9.3,84.8,–,"ED50 ([9]; ATCC6303, sc, 168 h, subcutaneous): 4 mg/kg"
"CC[C@H]1OC(=O)[C@H](C)[C@@H](O[C@H]2C[C@@](C)(OC)[C@@H](O)[C@H](C)O2)[C@H](C)[C@@H](O[C@@H]2O[C@H](C)C[C@H](N(C)C)[C@H]2O)[C@](C)(O)C[C@@H](C)[C@@H]2O[C@@]1(C)[C@@H](O)[C@H]2C [Example 4, (9S,11S)-9-Deoxo-12-deoxy-9,12-epoxyerythromycin A]",0.2,0.2,0.2,55,22.6,20,3.3,20.4,1.3,–
"CC[C@H]1OC(=O)[C@H](C)[C@@H](O[C@H]2C[C@@](C)(OC)[C@@H](O)[C@H](C)O2)[C@H](C)[C@@H](O[C@@H]2O[C@H](C)C[C@H](N(C)C)[C@H]2O)[C@](C)(O)C[C@@H](C)[C@@H]2O[C@@]1(C)C(=O)[C@H]2C [Example 5, (9S)-9-Deoxo-11,12-dideoxy-9,12-epoxy-11-oxoerythromycin A]",0.1,0.39,0.2,25.2,22.6,3.9,1.7,23.7,< 0.4,–
